melting point: 190 °C (dec.)
SMILES: N=C(N)NC(=O)CCCn1nc2ccc(C(=O)NCC(NC(=O)OCc3ccccc3)C(=O)O)cn2c1=O (stereo not shown) [Example 6, 3-[2-(3-Guanidinocarbonyl-1-propyl)-2,3-dihydro-3-oxo-[1,2,4]triazolo[4,3-a]pyridin-6-carbonylamino]-2-[(phenylmethoxy)carbonylamino]propanoic acid]

— patent publication US6867208B2, “Vitronectin receptor antagonists, their preparation and their use” (Hoechst Aktiengesellschaft, priority 1996, dated 2005)
